The record followed here is patent publication US9321798B2, “Phosphoramidite derivatives of gemcitabine for use in the treatment of cancer” (NuCana BioMed Limited, priority 2010, dated 2016).

The assay deals with Human colon cancer cell line HRT18. The assay is described as follows: MTT cytotoxicity / cell proliferation assay in HRT18 colon tumour cell line. The assay is classed as cell-based. As to conditions: HRT-18, HRT18 cells, 72 h incubation, 0.128-2000 nM, read-out: EC50 (nM) Colorectal cell HRT18. The text has this:
The compounds can be assayed by many in vitro or in vivo methods, but in the first instance a cell proliferation assay is rapid and informative. Many tumour cell lines can be used for the assay, we herein report typical data for target compounds in HRT18 colon tumour cell line, using standard MTT assay methods, typical in many laboratories.
Human colon cancer cell line HRT18 were purchased from the European Collection of Animal Cell Cultures (ECACC, Salisbury, England). Cytoxicity assay was based on MTT assay as we previously reported. The method is based on the ability of viable mitochondria to convert MTT, a soluble tetrazolium salt (3-[4,5-dimethylthiazd-2-yl]-2,5-diphenyltetrazolium bromide) into an insoluble formazan precipitate that is dissolved and quantified by spectrophotometry. A 96-well culture cell culture plate was used. Cells were counted with a haemocytomete counting chamber and a specific number (4000 per well) of cells were seeded to each well with culture medium (DMEM). Compounds, dissolved in DMSO, were series diluted (1:5) in culture medium, to cover a final concentration range between 0.128 and 2000 nM. The culture plate was incubated for 72 h at 37° C. The cells were washed twice with BSS. A solution of MTT in 0.5 mg/mL in culture medium was added into each well. The culture plate was then incubated at 37° C. for 4 h. MTT was then removed by aspiration. The crystals produced by MTT reagent within the cells were then extracted by the addition of 100 µL of Triton X100 (10% in water). The cells were incubated at 4° C. for 24 h. The absorbance of the colorimetric products was then measured at a wavelength of 540 nm using a spectrophotometer (Titertecek).
With `C[C@H](NP(=O)(N[C@@H](C)C(=O)OC1CCCCC1)OC[C@H]1O[C@@H](n2ccc(N)nc2=O)C(F)(F)C1O)C(=O)OC1CCCCC1` (stereo partly drawn) [CPF458], the EC50 turned out to be 31 nM.
On to `C[C@H](NP(=O)(N[C@@H](C)C(=O)OCC(C)(C)C)OC[C@H]1O[C@@H](n2ccc(N)nc2=O)C(F)(F)C1O)C(=O)OCC(C)(C)C` (stereo partly drawn) [CPF460], for which the EC50 is 1.6 nM.
With `CCOC(=O)[C@H](C)NP(=O)(N[C@@H](C)C(=O)OCC)OC[C@H]1O[C@@H](n2ccc(N)nc2=O)C(F)(F)C1O` (stereo partly drawn) [CPF459, 2′-Deoxy-2′,2′-difluoro-D-cytidine-5′-O-bis(ethoxy-L-alaninyl)phosphate], the EC50 is 42 nM.
The same measure for `CC(C)OC(=O)[C@H](C)NP(=O)(N[C@@H](C)C(=O)OC(C)C)OC[C@H]1O[C@@H](n2ccc(N)nc2=O)C(F)(F)C1O` (stereo partly drawn) [CPF461]: 3.2 nM; for `C[C@H](NP(=O)(N[C@@H](C)C(=O)OCc1ccccc1)OC[C@H]1O[C@@H](n2ccc(N)nc2=O)C(F)(F)C1O)C(=O)OCc1ccccc1` (stereo partly drawn) [CPF457, 2′-Deoxy-2′,2′-difluoro-D-cytidine-5′-O-bis(benzoxy-L-alaninyl)] phosphate]: 14 nM; for `Nc1ccn([C@@H]2O[C@H](CO)[C@@H](O)C2(F)F)c(=O)n1` [Gemcitabine, gemcitabine]: 64 nM.

A word on the EC50: it is the concentration needed to bring the measured effect to its halfway point.
